Measured values as given in PubChem BioAssay AID1963986 (Molecular Pharmacology Branch, DTP, NCI, 2024).
One block for each compound: values may come before it.

Test system: 171881-019-R-J1-PDC tumor spheroid viability
Experiment: Anticancer human tumor 171881-019-R-J1-PDC patient-derived invasive breast carcinoma cell line growth inhibition [PI3K]
Conditions: spheroids with HUVEC and MSC; for IC50: curve of first compound; for viability, T/C: stronger effect = lower value
Outline: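 We assembled tumor spheroids that included a stromal compartment of HUVEC and MSCs, then exposed them to targeted agents alone and together with PI3K pathway inhibitors. Concentration series descended by half-log from clinically achievable Cmax levels. Viability served as the endpoint.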

[1] = second compound 0.00316 µM, first compound 0.0316 µM
[2] = second compound 0.00316 µM, first compound 0.1 µM
[3] = second compound 0.00316 µM, first compound 0.316 µM
[4] = second compound 0.00316 µM, first compound 1 µM
[5] = second compound 0.00316 µM, first compound 3.16 µM
[6] = second compound 0.00316 µM, first compound 10 µM
[7] = second compound 0.01 µM, first compound 0.0316 µM
[8] = second compound 0.01 µM, first compound 0.1 µM
[9] = second compound 0.01 µM, first compound 0.316 µM
[10] = second compound 0.01 µM, first compound 1 µM
[11] = second compound 0.01 µM, first compound 3.16 µM
[12] = second compound 0.01 µM, first compound 10 µM
[13] = second compound 0.0316 µM, first compound 0.0316 µM
[14] = second compound 0.0316 µM, first compound 0.1 µM
[15] = second compound 0.0316 µM, first compound 0.316 µM
[16] = second compound 0.0316 µM, first compound 1 µM
[17] = second compound 0.0316 µM, first compound 3.16 µM
[18] = second compound 0.0316 µM, first compound 10 µM
[19] = second compound 0.1 µM, first compound 0.0316 µM
[20] = second compound 0.1 µM, first compound 0.1 µM
[21] = second compound 0.1 µM, first compound 0.316 µM
[22] = second compound 0.1 µM, first compound 1 µM
[23] = second compound 0.1 µM, first compound 3.16 µM
[24] = second compound 0.1 µM, first compound 10 µM
[25] = second compound 0.316 µM, first compound 0.0316 µM
[26] = second compound 0.316 µM, first compound 0.1 µM
[27] = second compound 0.316 µM, first compound 0.316 µM
[28] = second compound 0.316 µM, first compound 1 µM
[29] = second compound 0.316 µM, first compound 3.16 µM
[30] = second compound 0.316 µM, first compound 10 µM
[31] = second compound 1 µM, first compound 0.0316 µM
[32] = second compound 1 µM, first compound 0.1 µM
[33] = second compound 1 µM, first compound 0.316 µM
[34] = second compound 1 µM, first compound 1 µM
[35] = second compound 1 µM, first compound 3.16 µM
[36] = second compound 1 µM, first compound 10 µM
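Note: spheroids exposed to compound for 7 days before viability read.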
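Throughout, for viability, T/C: 100% = DMSO vehicle-treated spheroids.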

IC50 (second compound 0.00316 µM): 5310 nM
IC50 (second compound 0.01 µM): < 31.6 nM
IC50 (second compound 0.0316 µM): < 31.6 nM
IC50 (second compound 0.1 µM): < 31.6 nM
IC50 (second compound 0.316 µM): < 31.6 nM
IC50 (second compound 1 µM): < 31.6 nM
Structure (SMILES): C=CC(=O)N1CCN(c2nc(=O)n(-c3c(C)ccnc3C(C)C)c3nc(-c4c(O)cccc4F)c(F)cc23)C(C)C1 (centres undefined) + COc1c(OCCCN2CCOCC2)ccc2c3n(c(=NC(=O)c4cnc(N)nc4)nc12)CCN3
viability, T/C [1]: 63.5%
viability, T/C [2]: 70%
viability, T/C [3]: 50%
viability, T/C [4]: 66.9%
viability, T/C [5]: 60.3%
viability, T/C [6]: 36.9%
viability, T/C [7]: 45.4%
viability, T/C [8]: 49.9%
viability, T/C [9]: 49%
viability, T/C [10]: 51.3%
viability, T/C [11]: 43.8%
viability, T/C [12]: 28.4%
viability, T/C [13]: 24.2%
viability, T/C [14]: 25.5%
viability, T/C [15]: 24.3%
viability, T/C [16]: 26.2%
viability, T/C [17]: 25.6%
viability, T/C [18]: 13.3%
viability, T/C [19]: 7.99%
viability, T/C [20]: 8.18%
viability, T/C [21]: 9.55%
viability, T/C [22]: 9.16%
viability, T/C [23]: 8.78%
viability, T/C [24]: 4.72%
viability, T/C [25]: 1.86%
viability, T/C [26]: 1.72%
viability, T/C [27]: 2.68%
viability, T/C [28]: 2.25%
viability, T/C [29]: 2.28%
viability, T/C [30]: 2.01%
viability, T/C [31]: 0.96%
viability, T/C [32]: 0.93%
viability, T/C [33]: 1.05%
viability, T/C [34]: 1.41%
viability, T/C [35]: 1.76%
viability, T/C [36]: 3.63%

IC50 (second compound 0.00316 µM): 2360 nM
IC50 (second compound 0.01 µM): 234 nM
IC50 (second compound 0.0316 µM): < 31.6 nM
IC50 (second compound 0.1 µM): < 31.6 nM
IC50 (second compound 0.316 µM): < 31.6 nM
IC50 (second compound 1 µM): < 31.6 nM
Structure (SMILES): C[C@@H](NC(=O)c1ncnc(N)c1Cl)c1ncc(C(=O)Nc2cc(C(F)(F)F)c(Cl)cn2)s1 + COc1c(OCCCN2CCOCC2)ccc2c3n(c(=NC(=O)c4cnc(N)nc4)nc12)CCN3
viability, T/C [1]: 62.5%
viability, T/C [2]: 78.9%
viability, T/C [3]: 67.5%
viability, T/C [4]: 62.2%
viability, T/C [5]: 45.9%
viability, T/C [6]: 27.2%
viability, T/C [7]: 50.9%
viability, T/C [8]: 49.9%
viability, T/C [9]: 51.3%
viability, T/C [10]: 43.4%
viability, T/C [11]: 29.9%
viability, T/C [12]: 17.9%
viability, T/C [13]: 27.5%
viability, T/C [14]: 26.9%
viability, T/C [15]: 26%
viability, T/C [16]: 20.8%
viability, T/C [17]: 16%
viability, T/C [18]: 7.51%
viability, T/C [19]: 9.3%
viability, T/C [20]: 8.92%
viability, T/C [21]: 5.88%
viability, T/C [22]: 7.2%
viability, T/C [23]: 4.61%
viability, T/C [24]: 2.13%
viability, T/C [25]: 2.53%
viability, T/C [26]: 2.04%
viability, T/C [27]: 2.28%
viability, T/C [28]: 2.25%
viability, T/C [29]: 1.53%
viability, T/C [30]: 1.06%
viability, T/C [31]: 1.22%
viability, T/C [32]: 1.54%
viability, T/C [33]: 1.62%
viability, T/C [34]: 1.3%
viability, T/C [35]: 0.85%
viability, T/C [36]: 1.04%
